# PubChem BioAssay AID330 (DTP/NCI, 2004)
# Several values for one entry are separate records, joined by “and”; a condition that tells them apart may be missing. Identical values can stand only once. Toxic doses and inconclusive results are not listed. Peptide text beside a SMILES is read from it.
# System: P388 leukemia ip, CD2F1 mice, survival T/C
# Assay: NCI In Vivo Anticancer Drug Screen. Data for tumor model P388 Leukemia (intraperitoneal) in CD2F1 (CDF1) mice
# Settings: endpoint: median survival time, higher = longer survival
# Procedure, shortened: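 Mice carrying the transplanted tumor received test compound or vehicle. Survival was recorded in each group, and the value is the treated-group measurement divided by that of the vehicle-treated control group.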
# [1] = dose: 200.0 mg/kg/injection, schedule: Q04DX003 (ip), vehicle: saline
# [2] = dose: 400.0 mg/kg/injection, schedule: Q04DX003 (ip), vehicle: saline
# [3] = dose: 60.0 mg/kg/injection, schedule: Q01DX005 (ip), vehicle: saline with Tween-80
# [4] = dose: 120.0 mg/kg/injection, schedule: Q01DX005 (ip), vehicle: saline with Tween-80
# [5] = dose: 50.0 mg/kg/injection, schedule: Q01DX005 (ip), vehicle: saline with Tween-80
# [6] = dose: 100.0 mg/kg/injection, schedule: Q01DX005 (ip), vehicle: saline with Tween-80
smiles,measurement,setting,value
CC(C)(C)NC(=O)C(F)(F)C(F)(F)C(F)(F)C(=O)NC(C)(C)C,T/C,"dose: 100.0 mg/kg/injection, schedule: Q04DX003 (ip), vehicle: saline",91 % of control
same,T/C,[1],100 % of control
same,T/C,[2],99 % of control
O=C1OCC=C1Sc1ccccc1,T/C,[3],106 % of control
same,T/C,[4],108 % of control
O=c1oc2ccccc2cc1-n1nnc2cc([N+](=O)[O-])ccc21,T/C,[3],91 % of control
same,T/C,[4],89 % of control
same,T/C,"dose: 240.0 mg/kg/injection, schedule: Q01DX005 (ip), vehicle: saline with Tween-80",99 % of control
COC(=O)C(Cc1ccccc1)NC(=O)C(CC(C)C)NC(=O)C(CC(C)C)NC(=O)C(N)CC(C)C (stereo unspecified) (H-LLLF-OMe; configuration not given here),T/C,[5],98 % of control
same,T/C,[6],104 % of control
CC(C)CC1NC(=O)OC1=O (stereo unspecified),T/C,[5],98 % of control
same,T/C,[6],94 % of control
same,T/C,"dose: 200.0 mg/kg/injection, schedule: Q01DX005 (ip), vehicle: saline with Tween-80",91 % of control
CC(=O)C1(O)CCC2(O)C3(O)CC=C4CC(O)CCC4(C)C3CC(OC(=O)c3ccc(O)cc3)C12C (stereo unspecified),T/C,"dose: 11.75 mg/kg/injection, schedule: Q01DX005 (ip), vehicle: distilled water + Tween-80 + alcohol",93 % of control
same,T/C,"dose: 23.5 mg/kg/injection, schedule: Q01DX005 (ip), vehicle: distilled water + Tween-80 + alcohol",94 % of control
same,T/C,"dose: 47.0 mg/kg/injection, schedule: Q01DX005 (ip), vehicle: distilled water + Tween-80 + alcohol",95 % of control
same,T/C,"dose: 94.0 mg/kg/injection, schedule: Q01DX005 (ip), vehicle: distilled water + Tween-80 + alcohol",94 % of control
O=C(O)C1=CO[C@@H](OC2OC(CO)C(O)C(O)C2O)[C@H]2[C@@H]1C=C[C@]2(O)CO (stereo partly specified),T/C,"dose: 4.68 mg/kg/injection, schedule: Q01DX009 (ip), vehicle: Klucel (hydroxypropylcellulose) (HPC)",101 % of control
same,T/C,"dose: 9.37 mg/kg/injection, schedule: Q01DX009 (ip), vehicle: Klucel (hydroxypropylcellulose) (HPC)",97 % of control
same,T/C,"dose: 18.75 mg/kg/injection, schedule: Q01DX009 (ip), vehicle: Klucel (hydroxypropylcellulose) (HPC)",97 % of control
same,T/C,"dose: 37.5 mg/kg/injection, schedule: Q01DX009 (ip), vehicle: Klucel (hydroxypropylcellulose) (HPC)",94 % of control
same,T/C,"dose: 75.0 mg/kg/injection, schedule: Q01DX009 (ip), vehicle: Klucel (hydroxypropylcellulose) (HPC)",98 % of control and 90 % of control
same,T/C,"dose: 150.0 mg/kg/injection, schedule: Q01DX009 (ip), vehicle: Klucel (hydroxypropylcellulose) (HPC)",97 % of control
C=C1C(=O)C23CC1CCC2C12COC(OC(=O)CCCCCCCCCCCCCCC)C1C(C)(C)C(O)CC2OC3=O (stereo unspecified),T/C,"dose: 7.5 mg/kg/injection, schedule: Q01DX009 (ip), vehicle: saline with Tween-80",96 % of control
same,T/C,"dose: 15.0 mg/kg/injection, schedule: Q01DX009 (ip), vehicle: saline with Tween-80",99 % of control
same,T/C,"dose: 30.0 mg/kg/injection, schedule: Q01DX009 (ip), vehicle: saline with Tween-80",97 % of control
same,T/C,"dose: 60.0 mg/kg/injection, schedule: Q01DX009 (ip), vehicle: saline with Tween-80",100 % of control
COc1ccc(Cc2nncc3ccccc23)cc1OC,T/C,"dose: 6.25 mg/kg/injection, schedule: Q01DX009 (ip), vehicle: saline with Tween-80",107 % of control
same,T/C,"dose: 12.5 mg/kg/injection, schedule: Q01DX009 (ip), vehicle: saline with Tween-80",107 % of control
same,T/C,"dose: 25.0 mg/kg/injection, schedule: Q01DX009 (ip), vehicle: saline with Tween-80",105 % of control
same,T/C,"dose: 100.0 mg/kg/injection, schedule: Q01DX009 (ip), vehicle: saline with Tween-80",95 % of control
same,T/C,"dose: 200.0 mg/kg/injection, schedule: Q01DX009 (ip), vehicle: saline with Tween-80",104 % of control
Cc1ccc(S(=O)(=O)N=C(N(C)C)N(C)C)cc1,T/C,"dose: 100.0 mg/kg/injection, schedule: Q04DX002 (ip), vehicle: saline with Tween-80",99 % of control
same,T/C,"dose: 200.0 mg/kg/injection, schedule: Q04DX002 (ip), vehicle: saline with Tween-80",100 % of control
same,T/C,"dose: 400.0 mg/kg/injection, schedule: Q04DX002 (ip), vehicle: saline with Tween-80",104 % of control
c1ccc(CN2CCOC2)cc1,T/C,"dose: 12.5 mg/kg/injection, schedule: Q01DX009 (ip), vehicle: saline",108 % of control
same,T/C,"dose: 25.0 mg/kg/injection, schedule: Q01DX009 (ip), vehicle: saline",108 % of control
same,T/C,"dose: 50.0 mg/kg/injection, schedule: Q01DX009 (ip), vehicle: saline",118 % of control and 124 % of control
same,T/C,"dose: 100.0 mg/kg/injection, schedule: Q01DX009 (ip), vehicle: saline",123 % of control
same,T/C,"dose: 200.0 mg/kg/injection, schedule: Q01DX009 (ip), vehicle: saline",116 % of control
CCCCc1ccc(-n2c(C)nc3[nH]cc(C)c3c2=N)cc1,T/C,"dose: 50.0 mg/kg/injection, schedule: Q01DX005 (ip), vehicle: Klucel (hydroxypropylcellulose) (HPC)",96 % of control
same,T/C,"dose: 100.0 mg/kg/injection, schedule: Q01DX005 (ip), vehicle: Klucel (hydroxypropylcellulose) (HPC)",102 % of control
same,T/C,"dose: 200.0 mg/kg/injection, schedule: Q01DX005 (ip), vehicle: Klucel (hydroxypropylcellulose) (HPC)",97 % of control
CSc1cc(=O)n2c3ccccc3c3ccnc1c32,T/C,"dose: 2.5 mg/kg/injection, schedule: Q01DX009 (ip), vehicle: saline with Tween-80",100 % of control and 120 % of control
same,T/C,"dose: 5.0 mg/kg/injection, schedule: Q01DX009 (ip), vehicle: saline with Tween-80",116 % of control
same,T/C,"dose: 10.0 mg/kg/injection, schedule: Q01DX009 (ip), vehicle: saline with Tween-80",156 % of control
CC(C)CC(NC(=O)C(N)Cc1c[nH]c2ccccc12)C(N)=O (stereo not drawn) (H-Trp-Leu-NH2; configuration not given here),T/C,[1],95 % of control
same,T/C,[2],106 % of control
O=C(N/N=C/c1cc(Br)ccc1[O-])c1cccnc1.O=C(N/N=C/c1cc(Br)ccc1[O-])c1cccnc1.[Zn+2],T/C,"dose: 100.0 mg/kg/injection, schedule: Q01DX001 (ip), vehicle: Klucel (hydroxypropylcellulose) (HPC)",98 % of control
same,T/C,"dose: 200.0 mg/kg/injection, schedule: Q01DX001 (ip), vehicle: Klucel (hydroxypropylcellulose) (HPC)",93 % of control
same,T/C,"dose: 400.0 mg/kg/injection, schedule: Q01DX001 (ip), vehicle: Klucel (hydroxypropylcellulose) (HPC)",93 % of control
